Laboratory results as given in ChEMBL document CHEMBL5143615, “Novel 2-aryl-4-aryloxyquinoline-based fungistatics for Mucor circinelloides. Biological evaluation of activity, QSAR and docking study” (Bioorg Med Chem Lett, 2022).
Calls of active or inactive are those of the source. The calls are words filed in the database; no cut-off is given here.

Tests used:
Mucor circinelloides [1] = assay: Antifungal activity against Mucor circinelloides M5 strain assessed as reduction in spore germination at 100 ug/ml relative to control; assay type: functional; parameters: scale not given: the % may be the effect or the level left; settings: dose 100 µg/ml
Mucor circinelloides [2] = assay: Antifungal activity against Mucor circinelloides R7B wild type strain assessed as reduction in spore germination at 100 ug/ml relative to control; assay type: functional; parameters: scale not given: the % may be the effect or the level left; settings: dose 100 µg/ml
[3] = target: T1, Lanosterol 14-alpha demethylase (Mus musculus, UniProt Q8K0C4); assay: Inhibition of CYP51 in mouse NIH/3T3 cells assessed as specific enzymatic activity at 50 ug/ml incubated for 48 hrs by ELISA analysis; assay type: ADME, cell-based; settings: nih/3t3, 48 h, dose 50 µg/ml
T1 sequence (Q8K0C4 whole entry): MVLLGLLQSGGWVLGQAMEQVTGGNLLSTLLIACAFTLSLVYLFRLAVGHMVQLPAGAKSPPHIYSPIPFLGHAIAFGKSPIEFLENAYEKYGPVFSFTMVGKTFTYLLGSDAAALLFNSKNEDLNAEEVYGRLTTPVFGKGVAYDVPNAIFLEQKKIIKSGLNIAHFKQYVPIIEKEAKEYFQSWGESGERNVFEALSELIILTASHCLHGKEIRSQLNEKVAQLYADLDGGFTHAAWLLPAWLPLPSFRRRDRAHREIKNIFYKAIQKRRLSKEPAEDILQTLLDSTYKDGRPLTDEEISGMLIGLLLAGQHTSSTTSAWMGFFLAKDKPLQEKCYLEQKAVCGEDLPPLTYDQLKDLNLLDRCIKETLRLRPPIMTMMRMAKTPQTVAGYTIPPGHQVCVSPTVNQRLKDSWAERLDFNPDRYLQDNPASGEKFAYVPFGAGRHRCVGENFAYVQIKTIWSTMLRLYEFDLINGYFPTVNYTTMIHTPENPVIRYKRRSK

Mucor circinelloides [4] = assay: Antifungal activity against Mucor circinelloides R7B wild type strain assessed as reduction in spore germination at 50 ug/ml relative to control; assay type: functional; parameters: scale not given: the % may be the effect or the level left; settings: dose 50 µg/ml
Mucor circinelloides [5] = assay: Antifungal activity against Mucor circinelloides R7B wild type strain assessed as few mycelia with several spores at 50 ug/ml by microscopic analysis; assay type: functional, organism-based; settings: dose 50.0 µg/ml
[6] = Cytotoxicity against mouse NIH/3T3 cells assessed as reduction in cell viability at 50 ug/ml incubated for 48 hrs by MTT assay (reference value: 93.8 +/- 4.9 %); assay type: toxicity, cell-based, NIH3T3; settings: at 50 µg/mL, read-out: Activity
[7] = Cytotoxicity against mouse NIH/3T3 cells assessed as reduction in cell viability at 100 ug/ml incubated for 48 hrs by MTT assay (reference value: 93.8 +/- 4.9 %); assay type: toxicity, cell-based, NIH3T3; settings: at 100 µg/mL, read-out: Activity
[8] = Cytotoxicity against mouse NIH/3T3 cells assessed as reduction in cell viability at 150 ug/ml incubated for 48 hrs by MTT assay (reference value: 93.8 +/- 4.9 %); assay type: toxicity, cell-based, NIH3T3; settings: at 150 µg/mL, read-out: Activity
Mucor circinelloides [9] = assay: Antifungal activity against Mucor circinelloides M5 strain assessed as reduction in spore germination at 25 ug/ml relative to control; assay type: functional; parameters: scale not given: the % may be the effect or the level left; settings: dose 25 µg/ml
[10] = target: T1, Lanosterol 14-alpha demethylase; assay: Inhibition of CYP51 in mouse NIH/3T3 cells assessed as specific enzymatic activity at 200 ug/ml incubated for 48 hrs by ELISA analysis; assay type: ADME, cell-based; settings: nih/3t3, 48 h, dose 200 µg/ml
Mucor circinelloides [11] = assay: Antifungal activity against Mucor circinelloides R7B wild type strain assessed as non-germinated spores and undifferentiated hyphae at 50 ug/ml by microscopic analysis; assay type: functional, organism-based; settings: dose 50.0 µg/ml
Mucor circinelloides [12] = assay: Antifungal activity against Mucor circinelloides M5 strain assessed as non-germinated spores and undifferentiated hyphae at 50 ug/ml by microscopic analysis; assay type: functional, organism-based; settings: dose 50.0 µg/ml
Mucor circinelloides [13] = assay: Antifungal activity against Mucor circinelloides R7B wild type strain assessed as reduction in spore germination at 150 ug/ml relative to control; assay type: functional; parameters: scale not given: the % may be the effect or the level left; settings: dose 150 µg/ml
[14] = Cytotoxicity against mouse NIH/3T3 cells assessed as reduction in cell viability at 25 ug/ml incubated for 48 hrs by MTT assay (reference value: 93.8 +/- 4.9 %); assay type: toxicity, cell-based, NIH3T3; settings: at 25 µg/mL, read-out: Activity
[15] = Cytotoxicity against mouse NIH/3T3 cells assessed as reduction in cell viability at 200 ug/ml incubated for 48 hrs by MTT assay (reference value: 93.8 +/- 4.9 %); assay type: toxicity, cell-based, NIH3T3; settings: at 200 µg/mL, read-out: Activity
[16] = target: T1, Lanosterol 14-alpha demethylase; assay: Inhibition of CYP51 in mouse NIH/3T3 cells assessed as specific enzymatic activity at 25 ug/ml incubated for 48 hrs by ELISA analysis; assay type: ADME, cell-based; settings: nih/3t3, 48 h, dose 25 µg/ml
[17] = target: T1, Lanosterol 14-alpha demethylase; assay: Inhibition of CYP51 in mouse NIH/3T3 cells assessed as specific enzymatic activity at 150 ug/ml incubated for 48 hrs by ELISA analysis; assay type: ADME, cell-based; settings: nih/3t3, 48 h, dose 150 µg/ml
Mucor circinelloides [18] = assay: Antifungal activity against Mucor circinelloides R7B wild type strain assessed as non-germinated spores at 100 to 150 ug/ml by microscopic analysis; assay type: functional, organism-based; settings: dose 100-150 µg/ml
[19] = target: T1, Lanosterol 14-alpha demethylase; assay: Inhibition of CYP51 in mouse NIH/3T3 cells assessed as specific enzymatic activity at 100 ug/ml incubated for 48 hrs by ELISA analysis; assay type: ADME, cell-based; settings: nih/3t3, 48 h, dose 100 µg/ml
Mucor circinelloides [20] = assay: Antifungal activity against Mucor circinelloides M5 strain assessed as few mycelia with several spores at 50 ug/ml by microscopic analysis; assay type: functional, organism-based; settings: dose 50.0 µg/ml
Mucor circinelloides [21] = assay: Antifungal activity against Mucor circinelloides M5 strain assessed as reduction in spore germination at 50 ug/ml relative to control; assay type: functional; parameters: scale not given: the % may be the effect or the level left; settings: dose 50 µg/ml
Mucor circinelloides [22] = assay: Antifungal activity against Mucor circinelloides M5 strain assessed as reduction in spore germination at 150 ug/ml relative to control; assay type: functional; parameters: scale not given: the % may be the effect or the level left; settings: dose 150 µg/ml
Mucor circinelloides [23] = assay: Antifungal activity against Mucor circinelloides R7B wild type strain assessed as complete absence of mycelia at 100 to 150 ug/ml by microscopic analysis; assay type: functional, organism-based; settings: dose 100-150 µg/ml
Mucor circinelloides [24] = assay: Antifungal activity against Mucor circinelloides R7B wild type strain assessed as reduction in spore germination at 25 ug/ml relative to control; assay type: functional; parameters: scale not given: the % may be the effect or the level left; settings: dose 25 µg/ml
Mucor circinelloides [25] = assay: Antifungal activity against Mucor circinelloides M5 strain assessed as non-germinated spores at 100 to 150 ug/ml by microscopic analysis; assay type: functional, organism-based; settings: dose 100-150 µg/ml
Mucor circinelloides [26] = assay: Antifungal activity against Mucor circinelloides M5 strain assessed as complete absence of mycelia at 100 to 150 ug/ml by microscopic analysis; assay type: functional, organism-based; settings: dose 100-150 µg/ml

In the case of COc1cc(-c2ccc(Cl)c(Cl)c2)nc2ccccc12, the Activity (Mucor circinelloides [1]) is reported as 93.7% and the Activity (Mucor circinelloides [2]) is reported as 96.1%.
COc1ccc(-c2cc(Oc3ccccc3)c3ccccc3n2)cc1 gave an Activity (Mucor circinelloides [1]) of 92.1% and an Activity (Mucor circinelloides [2]) of 94.3%.
In the case of O=[N+]([O-])c1ccc(Oc2cc(-c3ccc(Cl)cc3)nc3ccccc23)cc1, the Activity (Mucor circinelloides [1]) is reported as 82.9% and the Activity (Mucor circinelloides [2]) is reported as 81.7%.
Clc1ccc(-c2cc(Oc3ccccc3)c3ccccc3n2)cc1Cl gave an Activity (Mucor circinelloides [1]) of 57.8% and an Activity (Mucor circinelloides [2]) of 60.8%.
Molecule O=[N+]([O-])c1ccc(Oc2cc(-c3cc(F)cc(F)c3)nc3ccccc23)cc1 has an Activity (Mucor circinelloides [1]) of 11.2%, an Activity (Mucor circinelloides [2]) of 7.9% and an Activity [3] of 11.21 U/mg. For the same molecule, the Activity (Mucor circinelloides [4]) was 28.3%, the Activity (Mucor circinelloides [5]) was “Active” and the viability at 48 h, 50 ug/ml [6] was 91.8%. It also gave a viability at 48 h, 100 ug/ml [7] of 84%, a viability at 48 h, 150 ug/ml [8] of 18.3% and an Activity (Mucor circinelloides [9]) of 82.5%. The Activity [10] was 0.4 U/mg, the Activity (Mucor circinelloides [11]) was “Active” and the Activity (Mucor circinelloides [12]) was “Active”. For the same molecule, the Activity (Mucor circinelloides [13]) was 5.8%, the viability at 48 h, 25 ug/ml [14] was 94.5% and the viability at 48 h, 200 ug/ml [15] was 15.5%. For the same molecule, the Activity [16] was 16.7 U/mg, the Activity [17] was 2.56 U/mg and the Activity (Mucor circinelloides [18]) was “Active”. For the same molecule, the Activity [19] was 6.02 U/mg, the Activity (Mucor circinelloides [20]) was “Active” and the Activity (Mucor circinelloides [21]) was 37.3%. For the same molecule, the Activity (Mucor circinelloides [22]) was 7.9%, the Activity (Mucor circinelloides [23]) was “Active” and the Activity (Mucor circinelloides [24]) was 83.9%. For the same molecule, the Activity (Mucor circinelloides [25]) was “Active” and the Activity (Mucor circinelloides [26]) was “Active”.
For COc1cc(-c2ccccc2)nc2ccccc12, the Activity (Mucor circinelloides [1]) was 95.8% and the Activity (Mucor circinelloides [2]) was 97.8%.
Work on COc1cc(-c2ccc(Cl)cc2)nc2ccccc12 yielded an Activity (Mucor circinelloides [1]) of 97.3% and an Activity (Mucor circinelloides [2]) of 98.1%.
Cc1cccc(-c2cc(Oc3ccc([N+](=O)[O-])cc3)c3ccccc3n2)c1 showed an Activity (Mucor circinelloides [1]) of 98.1% and an Activity (Mucor circinelloides [2]) of 98.1%.
COc1ccc(-c2cc(OC)c3ccccc3n2)cc1OC gave an Activity (Mucor circinelloides [1]) of 96.2% and an Activity (Mucor circinelloides [2]) of 97.1%.
Clc1cccc(-c2cc(Oc3ccccc3)c3ccccc3n2)c1 showed an Activity (Mucor circinelloides [1]) of 85.6% and an Activity (Mucor circinelloides [2]) of 89.1%.
For c1ccc(-c2ccc3ccccc3n2)cc1 [2-PHENYLQUINOLINE], the Activity (Mucor circinelloides [1]) was 98.2% and the Activity (Mucor circinelloides [2]) was 98.1%.
c1ccc(Oc2cc(-c3ccccc3)nc3ccccc23)cc1 gave an Activity (Mucor circinelloides [1]) of 97.9% and an Activity (Mucor circinelloides [2]) of 97.4%.
With COc1cc(-c2ccc(C)cc2)nc2ccccc12 the Activity (Mucor circinelloides [1]) was 84.9% and the Activity (Mucor circinelloides [2]) was 81.9%.
With c1ccc(Oc2cc(-c3ccc4c(c3)OCO4)nc3ccccc23)cc1 the Activity (Mucor circinelloides [1]) was 29.5%, the Activity (Mucor circinelloides [2]) was 28.2% and the Activity (Mucor circinelloides [4]) was 47.6%. It also gave an Activity (Mucor circinelloides [9]) of 69.7%, an Activity (Mucor circinelloides [13]) of 21.6% and an Activity (Mucor circinelloides [21]) of 52.8%. For the same molecule, the Activity (Mucor circinelloides [22]) was 23.4% and the Activity (Mucor circinelloides [24]) was 74.2%.
